Source: ChEMBL document CHEMBL2074487, “Effects of 12 Ca2+ antagonists on multidrug resistance, MDR1-mediated transport and MDR1 mRNA expression” (Eur J Pharm Sci, 2002)

What follows are compounds tested against ATP-dependent translocase ABCB1 (Homo sapiens, UniProt P08183) (assay: TP_TRANSPORTER: inhibition of Digoxin transepithelial transport (basal to apical) (Digoxin: 0.1 uM) in MDR1-expressing LLC-PK1 cells).
Type: functional, cell-based

ATP-dependent translocase ABCB1, sequence (P08183 whole entry): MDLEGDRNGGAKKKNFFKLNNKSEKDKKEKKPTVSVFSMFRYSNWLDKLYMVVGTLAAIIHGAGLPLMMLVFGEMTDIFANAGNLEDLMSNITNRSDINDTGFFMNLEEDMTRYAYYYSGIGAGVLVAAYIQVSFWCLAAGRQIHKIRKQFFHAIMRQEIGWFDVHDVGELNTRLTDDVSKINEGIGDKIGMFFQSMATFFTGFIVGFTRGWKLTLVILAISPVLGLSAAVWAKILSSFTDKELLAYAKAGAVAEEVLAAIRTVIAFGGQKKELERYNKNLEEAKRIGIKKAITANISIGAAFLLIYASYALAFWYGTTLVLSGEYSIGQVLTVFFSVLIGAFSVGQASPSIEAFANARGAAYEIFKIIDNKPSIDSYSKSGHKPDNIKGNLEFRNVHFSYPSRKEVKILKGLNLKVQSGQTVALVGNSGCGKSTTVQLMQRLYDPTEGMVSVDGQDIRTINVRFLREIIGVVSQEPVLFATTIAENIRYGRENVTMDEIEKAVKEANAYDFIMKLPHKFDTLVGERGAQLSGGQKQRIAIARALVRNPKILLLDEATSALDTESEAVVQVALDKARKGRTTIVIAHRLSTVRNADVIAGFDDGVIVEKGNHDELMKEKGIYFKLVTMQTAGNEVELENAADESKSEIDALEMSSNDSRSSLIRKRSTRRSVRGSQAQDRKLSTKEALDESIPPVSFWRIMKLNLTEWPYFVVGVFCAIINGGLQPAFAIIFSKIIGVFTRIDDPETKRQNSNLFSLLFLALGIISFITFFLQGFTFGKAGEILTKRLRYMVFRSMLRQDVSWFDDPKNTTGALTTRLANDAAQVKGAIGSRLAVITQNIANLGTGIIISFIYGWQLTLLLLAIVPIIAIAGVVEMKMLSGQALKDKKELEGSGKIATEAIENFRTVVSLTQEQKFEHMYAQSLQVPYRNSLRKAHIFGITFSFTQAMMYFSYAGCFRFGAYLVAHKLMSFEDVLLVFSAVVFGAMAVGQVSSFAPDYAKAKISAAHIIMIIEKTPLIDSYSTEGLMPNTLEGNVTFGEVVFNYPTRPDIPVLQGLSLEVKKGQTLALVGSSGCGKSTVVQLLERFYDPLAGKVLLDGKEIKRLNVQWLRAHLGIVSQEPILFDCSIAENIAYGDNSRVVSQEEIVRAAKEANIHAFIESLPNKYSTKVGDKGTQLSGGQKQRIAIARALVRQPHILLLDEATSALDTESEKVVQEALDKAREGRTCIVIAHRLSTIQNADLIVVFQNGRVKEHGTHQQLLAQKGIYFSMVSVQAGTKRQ

Point of comparison: `COC(=O)C1=C(C#N)NC(C)=C(C(=O)OC(C)C)C1c1cccc([N+](=O)[O-])c1` (configuration not stated) [NILVADIPINE], IC50 18 µM. Against it:
- COC(=O)C1=C(C)NC(C)=C(C(=O)O[C@@H]2CCCN(Cc3ccccc3)C2)C1c1cccc([N+](=O)[O-])c1 (some centres not stated) — 3.6-fold lower, 4.96 µM
- COC(=O)C1=C(C)NC(C)=C(C(=O)O[C@H]2CCN(Cc3ccccc3)C2)[C@H]1c1cccc([N+](=O)[O-])c1 [BARNIDIPINE] — within 1.5-fold, 12.6 µM
- CC1=C(C(=O)OCCN(Cc2ccccc2)c2ccccc2)C(c2cccc([N+](=O)[O-])c2)C(P2(=O)OCC(C)(C)CO2)=C(C)N1 (configuration not stated) [EFONIDIPINE] — within 1.5-fold, 13 µM
- COC(=O)C1=C(C)NC(C)=C(C(=O)OC)C1c1ccccc1[N+](=O)[O-] [NIFEDIPINE] — 26-fold higher, 472 µM
- COC(=O)C1=C(C)NC(C)=C(C(=O)OCC(C)C)C1c1ccccc1[N+](=O)[O-] (configuration not stated) [NISOLDIPINE] — 2.5-fold higher, 44.1 µM
- CCOC(=O)C1=C(C)NC(C)=C(C(=O)OC)C1c1cccc([N+](=O)[O-])c1 (configuration not stated) [NITRENDIPINE] — 3.8-fold higher, 68.2 µM
